Data reported in US10155766B2, “Pyrazolopyrimidine antibacterial agents” (priority 2016, dated 2018).

Columns and labels:
[1] = target: T1, Mycobacterium paratuberculosis (Mp) IspD (Mycolicibacterium paratuberculosis, UniProt Q743W5); type: binding
T1 sequence (Q743W5 1-235): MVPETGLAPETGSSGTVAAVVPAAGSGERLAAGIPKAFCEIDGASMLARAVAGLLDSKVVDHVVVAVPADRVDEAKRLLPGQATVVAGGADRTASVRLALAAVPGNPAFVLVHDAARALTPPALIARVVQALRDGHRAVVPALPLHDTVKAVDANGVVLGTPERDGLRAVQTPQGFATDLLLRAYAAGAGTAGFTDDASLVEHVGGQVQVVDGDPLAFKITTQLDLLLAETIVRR

[2] = system: Mycobacterium abscessus (Ma) IspE; type: binding
[3] = target: BpIspF (Burkholderia pseudomallei, UniProt Q63T71); type: binding, B. pseudomallei
Chain of BpIspF (Q63T71 whole entry, looked up): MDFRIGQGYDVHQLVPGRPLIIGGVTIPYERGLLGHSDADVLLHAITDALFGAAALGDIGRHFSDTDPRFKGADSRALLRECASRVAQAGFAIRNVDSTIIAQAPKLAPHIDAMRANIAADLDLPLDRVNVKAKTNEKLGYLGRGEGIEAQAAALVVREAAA

[4] = system: Pseudomonas aeruginosa (ATCC 27853); experiment: microbe, parasite or virus in culture; type: cell-based; conditions: for zone of inhibition at 100 µM / zone of inhibition at 500 µM / zone of inhibition at 1000 µM: Pseudomonas aeruginosa, ATCC27853, read-out: Zone of inhibition (diameter, in millimeter) P. aeruginosa; for zone of inhibition at 100 µM: Conc. 0.1 mM; for zone of inhibition at 500 µM: Conc. 0.5 mM; for zone of inhibition at 1000 µM: Conc. 1.0 mM
[5] = target: T2, BtIspD (Burkholderia thailandensis, UniProt Q2SWT6); type: binding
T2 construct: 6xHis (AVA0421 vector, 3C-cleavable) (N, cleaved yes); made in house; host or cells: E. coli BL21(DE3)R3 Rosetta Oxford
T2 sequence (Q2SWT6 1-236): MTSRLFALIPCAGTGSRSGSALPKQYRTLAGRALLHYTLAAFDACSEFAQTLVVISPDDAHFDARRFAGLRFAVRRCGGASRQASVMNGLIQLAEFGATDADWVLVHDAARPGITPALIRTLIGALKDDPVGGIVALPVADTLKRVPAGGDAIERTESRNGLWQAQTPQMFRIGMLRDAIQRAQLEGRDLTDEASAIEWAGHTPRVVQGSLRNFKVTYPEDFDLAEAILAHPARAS

[6] = system: Burkholderia thailandensis (E 264); experiment: microbe, parasite or virus in culture; type: cell-based; conditions: for zone of inhibition at 100 µM / zone of inhibition at 500 µM / zone of inhibition at 1000 µM: Burkholderia thailandensis, read-out: Zone of inhibition (diameter, in millimeter) B. thailandensis; for zone of inhibition at 100 µM: Conc. 0.1 mM; for zone of inhibition at 500 µM: Conc. 0.5 mM; for zone of inhibition at 1000 µM: Conc. 1.0 mM
[7] = Solubility observed in work-up; conditions: in water and ethyl acetate
[8] = system: BtIspE; type: binding, Burkholderia thailandensis

| SMILES | fragment binding to MpIspD (in words) [1] | fragment binding to MaIspE (in words) [2] | fragment binding to BpIspF (in words) [3] | growth inhibition of P. aeruginosa (in words) [4] | zone of inhibition at 100 µM [4] [mm] | zone of inhibition at 500 µM [4] [mm] | zone of inhibition at 1000 µM [4] [mm] | STD-NMR binding to BtIspD (in words) [5] | melting point [°C] | growth inhibition of B. thailandensis (in words) [6] | zone of inhibition at 100 µM [6] [mm] | zone of inhibition at 500 µM [6] [mm] | zone of inhibition at 1000 µM [6] [mm] | solubility (in words) [7] | STD-NMR binding to BtIspE (in words) [8] |
| --- | --- | --- | --- | --- | --- | --- | --- | --- | --- | --- | --- | --- | --- | --- | --- |
| Cn1ncc2c(NCc3ccc(Cl)cc3)ncnc21 [Compound 17] | hit and clear fragment binder | hit and clear fragment binder | very weak binder below the STD-NMR hit threshold | did not show measurable growth inhibition | 0 | 0 | 0 | strongest binders | 197 to 199 | did not show measurable growth inhibition | 0 | 0 | 0 |  |  |
| Cn1ncc2c(NCCO)ncnc21 [Compound 3] |  |  |  |  | 0 | 15 | 21 |  | 196 to 198 |  | 0 | 0 | 0 | partially soluble |  |
| Cn1ncc2c(NCc3ccc(Cl)c(Cl)c3)ncnc21 [Compound 18] |  |  |  |  | 0 | 10 | 20 | strongest binders | 170 to 173 |  | 0 | 12 | 18 |  | high % STD values |
